ChEMBL document CHEMBL4483862, “Open-source discovery of chemical leads for next-generation chemoprotective antimalarials” (2018)

Tested on: Plasmodium berghei
Experiment: Luciferase/luciferin-expressing antifolate-resistant parasites were used to infect a culture of HepG2 cells that were pre-incubated with compounds. Infected hepatocytes emit light due to the luciferase reaction. Assay results are presented as the percent inhibition of light emission compared to control. […]
Type: functional
Settings: sporozoite; for IC90: read-out: LUCIFERASE INFECTION ASSAY - IC90
[1] = read-out: LUCIFERASE INFECTION ASSAY - IC50

Structure (SMILES) | IC90 | IC50 [1] | further results
CC(C)NC(=O)NCc1ccc(C(=O)OCC(=O)C(C#N)=C2Nc3ccccc3N2)cc1 | 6.88 µM |  | IC50 (PBLUC_HILL_SLOPE 2.52, PBLUC_R_SQUARED 0.605, read-out: LUCIFERASE INFECTION ASSAY - IC50): 2.88 µM
O=C(Nc1ccc(CNC(=O)C2Cc3cc(Cl)ccc3O2)cc1)c1ccco1 (centres undefined) | > 10 µM | > 10 µM | 
Cc1cc(C(=O)COC(=O)C2=COCCO2)c(C)n1Cc1ccco1 | > 10 µM | > 10 µM | 
O=C(Nc1cccc2c[nH]nc12)c1cnc(OCC(F)(F)F)c(Cl)c1 | 5.53 µM |  | IC50 (PBLUC_HILL_SLOPE 2.15, PBLUC_R_SQUARED 0.641, read-out: LUCIFERASE INFECTION ASSAY - IC50): 1.99 µM
COc1cc(-c2cc(-c3cc(OC)c(OC)c(OC)c3)cnc2N)ccc1O | 6.84 µM |  | IC50 (PBLUC_HILL_SLOPE 4.32, PBLUC_R_SQUARED 0.78, read-out: LUCIFERASE INFECTION ASSAY - IC50): 4.12 µM
O=C(CNc1cc(C(F)(F)F)ccc1Oc1ccc(Br)cc1)NCCC1=CCCCC1 | > 10 µM |  | IC50 (FFLUC_HILL_SLOPE 3.47, FFLUC_R_SQUARED 0.173, PBLUC_HILL_SLOPE 15.8, PBLUC_R_SQUARED 0.057, read-out: LUCIFERASE INFECTION ASSAY - IC50): 9.79 µM
Cc1cccc(Cn2nc(C(C)(C)C)cc2-c2nnc(SCc3ccccc3)n2C2CCCCC2)c1 | > 6.6 µM | > 6.6 µM | 
COC(=O)c1c(NC(=O)c2ccco2)c2cc(NC(C)Cc3ccccc3OC)cnc2n1C (centres undefined) | > 7.14 µM |  | IC50 (HEPG2TOX_HILL_SLOPE 9.88, HEPG2TOX_R_SQUARED 0.405, PBLUC_HILL_SLOPE 3.37, PBLUC_R_SQUARED 0.677, read-out: LUCIFERASE INFECTION ASSAY - IC50): 4.39 µM
CCn1c2ccccc2c2cc(NC(=O)CN3CCN(Cc4ccc5c(c4)OCO5)CC3)ccc21 | > 10 µM |  | IC50 (PBLUC_HILL_SLOPE 2.07, PBLUC_R_SQUARED 0.0912, read-out: LUCIFERASE INFECTION ASSAY - IC50): 8.08 µM
Cc1ccc(-n2c(SCC(=O)N3CCC(C)Sc4ccccc43)nnc2-c2ccccc2)cc1C (centres undefined) | > 10 µM |  | IC50 (FFLUC_HILL_SLOPE 12.3, FFLUC_R_SQUARED 0.54, HEPG2TOX_HILL_SLOPE 7.7, HEPG2TOX_R_SQUARED 0.421, PBLUC_HILL_SLOPE 3.98, PBLUC_R_SQUARED 0.233, read-out: LUCIFERASE INFECTION ASSAY - IC50): 6.2 µM
COc1cc(OC)cc(Oc2nc(NC(C)C)nc3ccsc23)c1 | 1.38 µM | 1.25 µM | 
Nc1nc(Cl)cc(Sc2ccc3ccccc3c2)n1 | > 11.5 µM |  | IC50 (HEPG2TOX_HILL_SLOPE 6.9, HEPG2TOX_R_SQUARED 0.449, read-out: LUCIFERASE INFECTION ASSAY - IC50): > 11.5 µM
COc1cc(OC)cc(C(=O)N(Cc2ccccc2)c2nc(-c3ccc(Cl)cc3Cl)cs2)c1 | > 10 µM | > 10 µM | 
O=C(Nc1ccc(F)cc1F)c1cc(Cl)ccc1O | 4.37 µM |  | IC50 (HEPG2TOX_HILL_SLOPE 14.4, HEPG2TOX_R_SQUARED 0.715, PBLUC_HILL_SLOPE 17.6, PBLUC_R_SQUARED 0.0303, read-out: LUCIFERASE INFECTION ASSAY - IC50): 3.86 µM
N/C(=N\NC(=O)c1cccc(C(F)(F)F)c1)c1ccc(C(F)(F)F)cn1 | 1.42 µM |  | IC50 (HEPG2TOX_HILL_SLOPE 1.95, HEPG2TOX_R_SQUARED 0.695, PBLUC_HILL_SLOPE 3.85, PBLUC_R_SQUARED 0.803, read-out: LUCIFERASE INFECTION ASSAY - IC50): 0.802 µM
CCCC(C)C(=O)Nc1nc2ccc(C)cn2c1C(=O)NC1CCCCC1 (centres undefined) | > 8.91 µM |  | IC50 (FFLUC_HILL_SLOPE 3.24, FFLUC_R_SQUARED 0.792, read-out: LUCIFERASE INFECTION ASSAY - IC50): > 8.91 µM
COc1cccc(-c2cnc3c(NC=O)cc(-c4ccc(OC)cc4OC)cn23)c1 | 0.664 µM |  | IC50 (HEPG2TOX_HILL_SLOPE 0.453, HEPG2TOX_R_SQUARED 0.602, PBLUC_HILL_SLOPE 0.932, PBLUC_R_SQUARED 0.666, read-out: LUCIFERASE INFECTION ASSAY - IC50): 0.0629 µM
CS(=O)(=O)Nc1cccc(-c2cn3c(-c4cccc(OC(F)(F)F)c4)cnc3cn2)c1 | > 7.36 µM |  | IC50 (PBLUC_HILL_SLOPE 13.3, PBLUC_R_SQUARED 0.233, read-out: LUCIFERASE INFECTION ASSAY - IC50): 7.15 µM
Cc1[nH]ncc1CCCNc1nc(C(F)(F)F)nc2ccccc12 | > 10 µM |  | IC50 (FFLUC_HILL_SLOPE 6.95, FFLUC_R_SQUARED 0.127, read-out: LUCIFERASE INFECTION ASSAY - IC50): > 10 µM
CCc1cccc(CC)c1N=C(S)NC(C)c1ccccc1 (centres undefined) | > 10 µM | > 10 µM | 
CCOC(=O)c1sc(N)c(C#N)c1COC(=O)/C=C/c1cn(-c2ccccc2)nc1-c1ccc(C)cc1 | > 10 µM |  | IC50 (PBLUC_HILL_SLOPE 3.64, PBLUC_R_SQUARED 0.326, read-out: LUCIFERASE INFECTION ASSAY - IC50): 6.32 µM

Structure (SMILES) | IC90 | IC50 [1] | further results
Cc1cc(NC(=O)C(c2ccc(Cl)cc2)C(C)C)ccc1Br (centres undefined) | > 10 µM | > 10 µM | 
COc1ccc(-c2ccnc3n[nH]c(-c4ccccc4)c23)cc1OC | 3.3 µM |  | IC50 (HEPG2TOX_HILL_SLOPE 2.45, HEPG2TOX_R_SQUARED 0.911, PBLUC_HILL_SLOPE 2.73, PBLUC_R_SQUARED 0.663, read-out: LUCIFERASE INFECTION ASSAY - IC50): 1.48 µM
O=C(Nc1cc(Cl)cc(Cl)c1)Nc1cc(-c2cccs2)n[nH]1 | 9.3 µM |  | IC50 (FFLUC_HILL_SLOPE 1.15, FFLUC_R_SQUARED 0.0672, PBLUC_HILL_SLOPE 14.1, PBLUC_R_SQUARED 0.219, read-out: LUCIFERASE INFECTION ASSAY - IC50): 7.95 µM
CC1CC(NC(=O)c2cc3c(=O)n4ccccc4nc3n2C)CC(C)(C)C1 (centres undefined) | 2.74 µM |  | IC50 (PBLUC_HILL_SLOPE 172, PBLUC_R_SQUARED 0.0501, read-out: LUCIFERASE INFECTION ASSAY - IC50): 2.7 µM
CCCN1CCc2nc(NCc3ccc(Oc4ccccc4)cc3)ncc2C1 | > 8.81 µM | > 8.81 µM | 
CN(C)c1ccc(/C=N/NC(=O)c2ccccc2N)c(Cl)c1 | > 10.4 µM | > 10.4 µM | 
Cc1ccccc1CN1CCN2C=C(C(=O)Nc3ccc(OCc4ccccc4)cc3)OC2=NC1=O | > 10 µM | > 10 µM | 
COc1cc(/C=c2\s/c(=C(/C#N)C(=O)Nc3cccc(S(=O)(=O)N4CCCCC4)c3)n(CCc3ccccc3)c2=O)ccc1OC(F)F | > 10 µM | > 10 µM | 
Cc1onc(-c2ccc(Cl)cc2)c1-c1ccnc(SCC(=O)c2ccc([N+](=O)[O-])cc2)n1 | > 7.07 µM |  | IC50 (FFLUC_HILL_SLOPE 14.7, FFLUC_R_SQUARED 0.642, read-out: LUCIFERASE INFECTION ASSAY - IC50): > 7.07 µM
CC1(C(=O)NCc2cccs2)Cc2c(-c3ccccc3)ccnc2O1 (centres undefined) | > 9.42 µM |  | IC50 (FFLUC_HILL_SLOPE 0.144, FFLUC_R_SQUARED 0.18, HEPG2TOX_HILL_SLOPE 3.88, HEPG2TOX_R_SQUARED 0.701, PBLUC_HILL_SLOPE 8.35, PBLUC_R_SQUARED 0.0479, read-out: LUCIFERASE INFECTION ASSAY - IC50): 7.82 µM
O=c1c2ccccc2cnn1-c1nc2ccccc2[nH]1 | > 10 µM |  | IC50 (HEPG2TOX_HILL_SLOPE 1.61, HEPG2TOX_R_SQUARED 0.823, PBLUC_HILL_SLOPE 0.454, PBLUC_R_SQUARED 0.451, read-out: LUCIFERASE INFECTION ASSAY - IC50): 4.95 µM
CS(=O)(=O)Nc1ccc(-c2csc(NC(=O)c3ccc4ncsc4c3)n2)cc1 | > 10 µM | > 10 µM | 
COC(=O)c1c(C)[nH]c(C(=O)Nc2nc(-c3cc(C)sc3C)cs2)c1C | > 10 µM |  | IC50 (HEPG2TOX_HILL_SLOPE 5.44, HEPG2TOX_R_SQUARED 0.234, read-out: LUCIFERASE INFECTION ASSAY - IC50): > 10 µM
CC(=O)Nc1ccccc1OCC(=O)NC(=O)NC(C)C1CC2CCC1C2 (centres undefined) | > 10 µM | 5.71 µM | 
O=C(Nc1ccc(OC(F)(F)F)cc1)c1ccc2c(c1)no[n+]2[O-] | 7.89 µM |  | IC50 (HEPG2TOX_HILL_SLOPE 13, HEPG2TOX_R_SQUARED 0.448, PBLUC_HILL_SLOPE 2.82, PBLUC_R_SQUARED 0.324, read-out: LUCIFERASE INFECTION ASSAY - IC50): 3.62 µM
COc1cc(C(=O)OC(C)C(=O)Nc2sccc2C(N)=O)ccc1C (centres undefined) | > 10 µM | > 10 µM | 
COc1ccc(C2=C(NCCc3ccccc3)c3ccccc3C2=O)cc1 | 0.404 µM |  | IC50 (FFLUC_HILL_SLOPE 105, FFLUC_R_SQUARED 0.774, PBLUC_HILL_SLOPE 1.53, PBLUC_R_SQUARED 0.754, read-out: LUCIFERASE INFECTION ASSAY - IC50): 0.096 µM
CCOC(=O)NC1=C/C(=N\S(=O)(=O)c2ccc(C)cc2)c2ccccc2C1=O | > 10 µM |  | IC50 (HEPG2TOX_HILL_SLOPE 8.17, HEPG2TOX_R_SQUARED 0.938, PBLUC_HILL_SLOPE 4.13, PBLUC_R_SQUARED 0.0669, read-out: LUCIFERASE INFECTION ASSAY - IC50): > 10 µM
Cc1ccc(C)c(OCCCN2C(=O)NC(Cc3c[nH]c4ccccc34)C2=O)c1 (centres undefined) | > 10 µM | > 10 µM | 
CCOC(=O)c1c(C)[nH]c(-c2csc(/C(C#N)=C/c3ccc[nH]3)n2)c1C | > 10 µM |  | IC50 (FFLUC_HILL_SLOPE 1.13, FFLUC_R_SQUARED 0.248, HEPG2TOX_HILL_SLOPE 11.9, HEPG2TOX_R_SQUARED 0.816, PBLUC_HILL_SLOPE 50.7, PBLUC_R_SQUARED 0.357, read-out: LUCIFERASE INFECTION ASSAY - IC50): 9.63 µM
O=C(NCc1ccccc1)C(=Cc1ccc(-c2ccccc2)cc1)C(=O)NCc1ccccc1 | 9.48 µM |  | IC50 (PBLUC_HILL_SLOPE 2.95, PBLUC_R_SQUARED 0.782, read-out: LUCIFERASE INFECTION ASSAY - IC50): 4.51 µM
